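Values below derive from 48-hour exposures of cells grown in 96-well plates, with endpoints linearly interpolated between the two concentrations bracketing the appropriate inhibition level. Abbreviation: GI50, concentration required for 50% inhibition of growth.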 Activity calls are given as the source filed them. No stated cut-off is given here; in the data, active = GI50 up to about 1.1 µM and inactive = higher.
Tests used:
Test in all cases: growth of human tumour cells (NCI), 48 h
[1] = system: A498
[2] = system: SK-MEL-28
[3] = system: OVCAR-4
[4] = system: IGROV-1
[5] = system: HCC 2998
[6] = system: EKVX
[7] = system: HOP-18
[8] = system: COLO 205
[9] = system: UO-31
[10] = system: SW-620
[11] = system: SF-295
[12] = system: ACHN
[13] = system: KM12
[14] = system: 786-0
[15] = system: TK-10
[16] = system: DU-145
[17] = system: OVCAR-3
[18] = system: MDA-N
[19] = system: NCI/ADR-RES
[20] = system: T47D

C=C(CN(C)C)C(=O)c1ccccc1C
GI50 [1]: > 100 µM (inactive)
GI50 [2]: 9.89 µM (inactive)
GI50 [3]: > 57.9 µM (inactive)
GI50 [4]: > 100 µM (inactive)
GI50 [5]: > 100 µM (inactive)
GI50 [6]: > 100 µM (inactive)
GI50 [7]: 22.9 µM (inactive)
GI50 [8]: 15.5 µM (inactive)
GI50 [9]: 37.4 µM (inactive)
GI50 [10]: 16.1 µM (inactive)
GI50 [11]: > 100 µM (inactive)
GI50 [12]: 24.7 µM (inactive)
GI50 [13]: > 100 µM (inactive)
GI50 [14]: 16.9 µM (inactive)
GI50 [15]: > 74.6 µM (inactive)
GI50 [16]: > 100 µM (inactive)
GI50 [17]: 33.1 µM (inactive)

CC1=NN(c2ccccc2)C(=O)C1/N=N/c1ccc(Br)cc1C (configuration not stated)
GI50 [1]: 57 µM (inactive)
GI50 [2]: > 100 µM (inactive)
GI50 [3]: 62.7 µM (inactive)
GI50 [4]: 67.3 µM (inactive)
GI50 [5]: > 100 µM (inactive)
GI50 [6]: > 100 µM (inactive)
GI50 [7]: 3.62 µM (inactive)
GI50 [8]: > 100 µM (inactive)
GI50 [10]: > 100 µM (inactive)
GI50 [11]: 72.8 µM (inactive)
GI50 [12]: 37.3 µM (inactive)
GI50 [13]: > 100 µM (inactive)
GI50 [14]: 82.2 µM (inactive)
GI50 [15]: 39.4 µM (inactive)
GI50 [17]: > 100 µM (inactive)

CCCCCCCCC/C=C1\CCC(CN2CCOCC2)C1=O (configuration not stated)
GI50 [1]: 12 µM (inactive)
GI50 [2]: 3.05 µM (inactive)
GI50 [18]: 2.64 µM (inactive)
GI50 [3]: 3.72 µM (inactive)
GI50 [4]: 4.83 µM (inactive)
GI50 [5]: 6.9 µM (inactive)
GI50 [6]: 14.8 µM (inactive)
GI50 [7]: 1.54 µM (inactive)
GI50 [8]: 3.73 µM (inactive)
GI50 [9]: 4.95 µM (inactive)
GI50 [10]: 2.28 µM (inactive)
GI50 [11]: 7.48 µM (inactive)
GI50 [12]: 4.92 µM (inactive)
GI50 [13]: 2.17 µM (inactive)
GI50 [14]: 1.3 µM (inactive)
GI50 [15]: 2.33 µM (inactive)
GI50 [16]: 4.65 µM (inactive)
GI50 [17]: 8.55 µM (inactive)

OC(C1CO1)C(O)C1CO1 (configuration not stated)
GI50 [1]: 74 µM (inactive)
GI50 [2]: 92.3 µM (inactive)
GI50 [18]: 29.9 µM (inactive)
GI50 [3]: 84.9 µM (inactive)
GI50 [4]: 68.1 µM (inactive)
GI50 [5]: 44.6 µM (inactive)
GI50 [6]: 90.4 µM (inactive)
GI50 [7]: 145 µM (inactive)
GI50 [19]: 40.7 µM (inactive)
GI50 [8]: 87.7 µM (inactive)
GI50 [20]: 17 µM (inactive)
GI50 [9]: 48.5 µM (inactive)
GI50 [12]: 4.04 µM (inactive)
GI50 [13]: 87.9 µM (inactive)
GI50 [14]: 8.69 µM (inactive)
GI50 [15]: 86.3 µM (inactive)
GI50 [16]: 9.75 µM (inactive)
GI50 [17]: 70.3 µM (inactive)

O=C(Nc1c(Cl)cc([N+](=O)[O-])cc1Cl)C(=O)C(C(=O)c1ccncc1)C1OC(=O)c2ccccc21 (configuration not stated)
GI50 [1]: > 100 µM (inactive)
GI50 [2]: > 100 µM (inactive)
GI50 [3]: > 100 µM (inactive)
GI50 [4]: > 100 µM (inactive)
GI50 [5]: > 100 µM (inactive)
GI50 [6]: > 100 µM (inactive)
GI50 [7]: > 100 µM (inactive)
GI50 [8]: > 100 µM (inactive)
GI50 [9]: > 100 µM (inactive)
GI50 [10]: > 100 µM (inactive)
GI50 [11]: > 100 µM (inactive)
GI50 [12]: > 100 µM (inactive)
GI50 [13]: > 100 µM (inactive)
GI50 [14]: > 100 µM (inactive)
GI50 [15]: > 100 µM (inactive)
GI50 [17]: > 100 µM (inactive)

COC(=O)c1ccccc1N(C(=O)c1ccccc1)c1ccccc1C
GI50 [1]: 27.5 µM (inactive)
GI50 [2]: > 100 µM (inactive)
GI50 [3]: 44.2 µM (inactive)
GI50 [4]: 76.6 µM (inactive)
GI50 [5]: 60 µM (inactive)
GI50 [6]: 53.2 µM (inactive)
GI50 [7]: 41.2 µM (inactive)
GI50 [8]: 26 µM (inactive)
GI50 [9]: 24.8 µM (inactive)
GI50 [10]: 59.8 µM (inactive)
GI50 [11]: 44.2 µM (inactive)
GI50 [12]: 53.6 µM (inactive)
GI50 [13]: 32.7 µM (inactive)
GI50 [14]: 50 µM (inactive)
GI50 [15]: 41.6 µM (inactive)
GI50 [17]: 34.6 µM (inactive)

O=[N+]([O-])c1ccc(Cl)c(C2CC(c3cccc4ccccc34)=Nc3ccccc3S2)c1 (configuration not stated)
GI50 [1]: > 45.2 µM (inactive)
GI50 [2]: 27.3 µM (inactive)
GI50 [3]: 20.1 µM (inactive)
GI50 [4]: 48.5 µM (inactive)
GI50 [5]: 69 µM (inactive)
GI50 [6]: 70.8 µM (inactive)
GI50 [7]: 26.9 µM (inactive)
GI50 [8]: 61.2 µM (inactive)
GI50 [9]: 18.4 µM (inactive)
GI50 [10]: 18.8 µM (inactive)
GI50 [11]: 23.9 µM (inactive)
GI50 [12]: 34.1 µM (inactive)
GI50 [13]: 20.2 µM (inactive)
GI50 [14]: 12.4 µM (inactive)
GI50 [15]: 41 µM (inactive)
GI50 [17]: 16.3 µM (inactive)

CCOC(=O)Nc1ccc(S(=O)(=O)OC)cc1.CCOC(=O)Nc1ccc(S(=O)(=O)OC)cc1.NNC(=O)c1ccncc1
GI50 [1]: > 50 µM (inactive)
GI50 [2]: > 50 µM (inactive)
GI50 [3]: > 50 µM (inactive)
GI50 [4]: > 50 µM (inactive)
GI50 [5]: > 50 µM (inactive)
GI50 [6]: > 50 µM (inactive)
GI50 [7]: > 50 µM (inactive)
GI50 [8]: > 50 µM (inactive)
GI50 [9]: > 50 µM (inactive)
GI50 [10]: 12.1 µM (inactive)
GI50 [11]: > 50 µM (inactive)
GI50 [12]: > 50 µM (inactive)
GI50 [13]: > 50 µM (inactive)
GI50 [14]: > 50 µM (inactive)
GI50 [15]: > 50 µM (inactive)
GI50 [17]: > 50 µM (inactive)

COc1ccccc1/C=C1\CCC(CCN(C)C)(C2=CCCC2)C1=O (configuration not stated)
GI50 [1]: 16.6 µM (inactive)
GI50 [2]: 17.7 µM (inactive)
GI50 [3]: 17.7 µM (inactive)
GI50 [4]: 14.1 µM (inactive)
GI50 [5]: 18 µM (inactive)
GI50 [6]: 1.81 µM (inactive)
GI50 [7]: 26.5 µM (inactive)
GI50 [8]: 10.2 µM (inactive)
GI50 [9]: 17.6 µM (inactive)
GI50 [10]: 17.5 µM (inactive)
GI50 [11]: 17.3 µM (inactive)
GI50 [12]: 16.7 µM (inactive)
GI50 [13]: 18.2 µM (inactive)
GI50 [14]: 14.4 µM (inactive)
GI50 [15]: 18.5 µM (inactive)
GI50 [17]: 16.9 µM (inactive)

O=C1N[C@H]2[C@H](O)[C@H](O)[C@@H](O)[C@H](O)[C@@H]2c2cc3c(c(O)c21)OCO3 [PANCRATISTATIN]
GI50 [1]: 0.0583 µM (active)
GI50 [2]: 0.0414 µM (active)
GI50 [18]: 0.0372 µM (active)
GI50 [3]: 0.0307 µM (active)
GI50 [4]: 0.0516 µM (active)
GI50 [5]: 0.0403 µM (active)
GI50 [7]: 0.0598 µM (active)
GI50 [19]: 0.0622 µM (active)
GI50 [8]: 0.0288 µM (active)
GI50 [20]: 0.0288 µM (active)
GI50 [9]: 0.0875 µM (active)
GI50 [10]: 0.0386 µM (active)
GI50 [11]: 0.0469 µM (active)
GI50 [12]: 0.673 µM (active)
GI50 [13]: 0.0393 µM (active)
GI50 [14]: 1.58 µM (inactive)
GI50 [15]: 0.65 µM (active)
GI50 [16]: 0.0306 µM (active)
GI50 [17]: 0.0376 µM (active)

Source: ChEMBL document CHEMBL1201862, “PubChem BioAssay data set” (2004)
